Patent publication US6544541B1, “Devices and compounds for treating arterial restenosis” (Cardiovascular Solutions, Inc., priority 1999, dated 2003)

Tests used:
[1] = tested on: porcine coronary artery smooth muscle cells
[2] = tested on: H4IIE hepatoma cells; test: DNA synthesis (3H-thymidine incorporation) in H4IIE cells; type: cell-based
Protocol: Incorporation of uridine or thymidine was used to define the change in rate of […] synthesis, respectively, in response to a mitogen such as insulin. Specifically, quiescent H4IIE cells were prepared by placing the cultures (in 24-well dishes) into serum-free a-minimal essential medium for 3 days. It is of note that the normal growth media for H4IIE cells is α-MEM containing 10% fetal bovine serum (FBS). After reaching quiescence, the cells were stimulated with 1 μM insulin and incubated for either 6 hours or 24 hours in the presence of 1 μCi/ml ^3H-uridine or ^3H-thymidine, respectively. Cells were subsequently lysed with detergent and the nucleic acids precipitated with 5% trichloroacetic acid. The precipitated material was collected on glass fibre filters and the radioactive content measured by scintillation counting. […] Furthermore, while complete inhibition of DNA synthesis by MIBG is obtained at approximately 20 μM, higher concentrations decrease basal DNA synthesis below control levels.

[3] = tested on: smooth muscle cells derived from human arterial conduits; test: DNA synthesis and cytotoxicity in human smooth muscle cells; settings: FIG. 26A
[4] = tested on: Friend erythroleukemia cells; test: Friend cell differentiation; type: cell-based
From the text: It is of note however that MIBG acts at a point in the differentiation pathway that is distinct from 3-aminobenzamide.

[5] = tested on: porcine radial artery to coronary artery anastomoses; test: bypass graft organ culture, PCNA expression; settings: 25 μM, 14 days in culture; FIG. 18
Protocol: Analogous to the organ culture model described above, a model of a radial artery to coronary artery bypass graft has been developed. It is of note that the construction of this anastomosis is identical to that used clinically in a bypass operation. Specifically, porcine radial artery to coronary artery anstomoses were conducted and placed into culture for 14 days. Control segments included coronary artery dissected and immediately frozen or incubated for 14 days before freezing. Alternatively, the anastomoses were incubated in the presence of 25 μM MIBG. PCNA (proliferating cell nuclear antigen) was detected by immunostaining after cryosectioning of the vessels. Nuclei were visualized with Hoescht […]. The numbers of nuclei and PCNA positive nuclei were determined and used to quantify the proliferation index.

[6] = tested on: L1210; settings: non-neuronal cell line L1210; cited from earlier work
[7] = tested on: H4IIE cells; test: lactate dehydrogenase (LDH) release toxicity assay; type: cell-based; settings: 96 hours; FIG. 5
Protocol: To address the issue of MIBG toxicity, lactate dehydrogenase (LDH) release was measured after incubation with MIBG or MIBA. Quiescent H4IIE cells were prepared in 96-well dishes and treated with various concentrations of either MIBG or MIBA for 96 hours. To quantify the release of LDH from the cells, which only occurs if the cells are damaged or killed by the treatment, 100 μl of culture medium was transferred to a fresh dish. To this was added 100 μl of dye/catalyst mixture (Boehringer Mannheim cytotoxicity detection kitTM), and the samples were subsequently incubated for 30 minutes at 37° C. Absorbance of the solution was monitored at 490 nm. The colour intensity indicates the relative LDH content in the test samples. […] As a consequence, it is speculated that changes in LDH release may be coupled to non-toxic and reversible alterations in mitochondrial metabolism or membrane integrity as a result of MIBG treatment.

[8] = tested on: smooth muscle cells; test: Boyden chamber smooth muscle cell migration in response to Angiotensin II; type: cell-based; settings: 20 μM; 10 μM Angiotensin II in lower compartment; FIG. 17
Protocol: Specifically, smooth muscle cells were seeded into the upper chamber of a Boyden chamber, which consists of two compartments that are separated by a permeable membrane. […] Specifically, migration to the lower compartment was determined by counting cells on the underside of the membrane. Data are presented as means ± standard error for six independent determinations.

[9] = tested on: L6 myoblasts; test: L6 myoblast differentiation; type: cell-based; settings: 25 μM; 2.5% horse serum; 4 days; FIG. 32
[10] = tested on: H4IIE hepatoma cells; test: RNA synthesis (3H-uridine incorporation) in insulin-stimulated quiescent H4IIE cells; type: cell-based; settings: comparison with 3-aminobenzamide; 1 μM insulin, 6 hours; FIG. 1
Protocol: Incorporation of uridine or thymidine was used to define the change in rate of […] synthesis, respectively, in response to a mitogen such as insulin. Specifically, quiescent H4IIE cells were prepared by placing the cultures (in 24-well dishes) into serum-free a-minimal essential medium for 3 days. It is of note that the normal growth media for H4IIE cells is α-MEM containing 10% fetal bovine serum (FBS). […] Cells were subsequently lysed with detergent and the nucleic acids precipitated with 5% trichloroacetic acid. The precipitated material was collected on glass fibre filters and the radioactive content measured by scintillation counting.

meta-iodobenzylguanidine [MIBG]
levels at which cytotoxic [1]: ≥ 200 µM
decrease of basal DNA synthesis ([1]; MIBG alone, highest concentration tested, FIG. 8): ≤ 40 % of the control
concentrations inhibiting stimulation of DNA and RNA synthesis ([1]; stimulation by angiotensin II and serum, FIGS. 6 and 7): 20 to 50 µM
concentration for complete inhibition of DNA synthesis ([2]; 1 μM insulin, 24 hours, FIG. 2): approximately 20 μM
inhibition of DNA synthesis (thymidine incorporation) ([2]; H4IIE cells): inhibits DNA synthesis
DNA synthesis and cytotoxicity compared with porcine cells [3]: comparable effects in both porcine and human tissues
effect on Friend cell differentiation [4]: inhibits Friend cell differentiation following commitment
increase in PCNA expression compared to segment examined immediately after dissection [5]: < 10 fold
concentration in cells relative to the surrounding medium [6]: 15 times
concentration at which increased LDH release is detectable [7]: 50 µM
smooth muscle cell migration [8]: inhibited smooth muscle cell migration
effect on L6 myoblast differentiation [9]: inhibits differentiation of L6 myoblasts at an early stage
inhibition of cell growth as indicated by RNA synthesis in response to insulin [10]: more potent inhibitor of cell growth
